Experimental data reported in PubChem BioAssay (NCI).
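Method: 48-hour compound exposure of cells in 96-well plates, five concentrations, linear interpolation of endpoints. Here, GI50 denotes the concentration required for 50% inhibition of growth. TGI marks complete inhibition of growth.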

Tests used:
Experiment in all cases: NCI tumour cell line growth inhibition, 48 h
SK-OV-3 ovarian = test system: SK-OV-3 ovarian
NCI/ADR-RES ovarian = test system: NCI/ADR-RES ovarian
SF-268 CNS = test system: SF-268 CNS
T-47D breast = test system: T-47D breast
NCI-H522 lung = test system: NCI-H522 lung
MDA-MB-231 breast = test system: MDA-MB-231 breast
SK-MEL-2 melanoma = test system: SK-MEL-2 melanoma
CAKI-1 renal = test system: CAKI-1 renal
SK-MEL-5 melanoma = test system: SK-MEL-5 melanoma
MDA-MB-435 = test system: MDA-MB-435

Row | Compound | GI50 (SK-OV-3 ovarian) | TGI (SK-OV-3 ovarian) | GI50 (NCI/ADR-RES ovarian) | TGI (NCI/ADR-RES ovarian) | GI50 (SF-268 CNS) | TGI (SF-268 CNS) | GI50 (T-47D breast) | TGI (T-47D breast) | GI50 (NCI-H522 lung) | TGI (NCI-H522 lung) | GI50 (MDA-MB-231 breast) | TGI (MDA-MB-231 breast) | GI50 (SK-MEL-2 melanoma) | TGI (SK-MEL-2 melanoma) | GI50 (CAKI-1 renal) | TGI (CAKI-1 renal) | GI50 (SK-MEL-5 melanoma) | TGI (SK-MEL-5 melanoma) | GI50 (MDA-MB-435) | TGI (MDA-MB-435)
1 | CCCCCC[C@H]1C(=O)O[C@H](C)[C@H](NC(=O)c2cccc(NC=O)c2OC)C(=O)O[C@@H](C)[C@@H]1OC(=O)CCC (tested in a mixture with another compound) | 24.2 µM | 66.1 µM | 8.63 µM | 34.2 µM | 13.7 µM | 36.6 µM | 11.2 µM | 35.5 µM | 13 µM | 34.4 µM | 13.5 µM | 34.2 µM | 18.1 µM | 60.5 µM | 9.71 µM | 24.4 µM | 3.94 µM | 14.5 µM | 9.6 µM | 27.9 µM
2 | O=[N+]([O-])/C=C/c1ccc(Cl)cc1[N+](=O)[O-] | 12.1 µM | 24.5 µM | 3.18 µM | 77.7 µM | 3.34 µM | > 100 µM | 2.48 µM | 5.96 µM | 1.5 µM | 3.3 µM | 2.33 µM | 6.46 µM | 12.3 µM | 39.7 µM | 2.16 µM | 9.09 µM | 8.47 µM | 21.5 µM | 3.62 µM | 16.1 µM
3 | O=c1cccc(Cl)[nH]1 |  | > 100 µM |  | > 100 µM |  | > 100 µM |  | > 100 µM |  | > 100 µM |  | > 100 µM |  | > 100 µM |  | > 100 µM |  | > 100 µM |  | > 100 µM
4 | CCOC(=O)[C@@H]1CSC(CC)=C(C(=O)O)N1 | > 100 µM | > 100 µM | > 100 µM | > 100 µM | > 100 µM | > 100 µM | > 100 µM | > 100 µM | > 100 µM | > 100 µM | > 100 µM | > 100 µM | > 100 µM | > 100 µM | > 100 µM | > 100 µM | > 100 µM | > 100 µM | > 100 µM | > 100 µM
5 | Cc1nc2ccccc2c(=O)n1/N=C(\N=Nc1cc(Cl)ccc1Cl)c1ccccc1 |  | > 100 µM |  | > 100 µM |  | > 100 µM |  | > 100 µM |  | 81.7 µM |  | > 100 µM |  | > 100 µM |  | > 100 µM |  | > 100 µM |  | 44.1 µM
6 | CCOC(=O)c1c(NC(=O)c2ccc(Cl)cc2)sc2c(CN(C)C)c(O)ccc12 | 10.9 µM | 33.3 µM | 8.57 µM | 36.1 µM | 7.63 µM | 48.8 µM | 4.88 µM | > 100 µM | 21 µM | > 100 µM | 6.53 µM | 34.5 µM | 6.51 µM | 41.1 µM | 5.57 µM | 32.5 µM | 10.8 µM | 35.1 µM | 6.62 µM | 29.9 µM
7 | OCC(O)C(O)C(O)C(O)c1nnc2c(-c3ccccc3)nc3ccccc3n12 (stereo not given) | > 100 µM | > 100 µM | 69.2 µM | > 100 µM | > 100 µM | > 100 µM | 28.6 µM | > 100 µM | 64.1 µM | > 100 µM | 32.8 µM | > 100 µM | > 100 µM | > 100 µM | > 100 µM | > 100 µM | 70.3 µM | > 100 µM | > 100 µM | > 100 µM
8 | CC(O)[C@H](NC(=O)N[C@@H](CC(N)=O)c1nc(N2CCNCC2)no1)C(=O)O (stereo not given in full) | > 100 µM | > 100 µM | > 100 µM | > 100 µM | > 100 µM | > 100 µM | > 100 µM | > 100 µM | > 100 µM | > 100 µM | > 100 µM | > 100 µM | > 100 µM | > 100 µM | > 100 µM | > 100 µM | > 100 µM | > 100 µM | > 100 µM | > 100 µM
9 | C=CC(=O)Nc1cc2c(Nc3ccc(F)c(Cl)c3)ncnc2cc1C#CC(C)(C)N1CCN(C)CC1 | 0.953 µM | 4.59 µM | 2.46 µM | 7.65 µM | 1.84 µM | 5.51 µM | 0.752 µM | 5.32 µM | 0.456 µM | 2.28 µM | 1.27 µM | 2.73 µM | 2.98 µM | 5.54 µM | 0.973 µM | 4.05 µM | 4.69 µM | 7.42 µM | 1.5 µM | 3.9 µM
10 | C[As](C)SC1OCC(O)C(O)C1O (stereo not given) | 0.211 µM | 4.47 µM | 0.138 µM | 0.602 µM | 0.492 µM | 2.88 µM | 0.158 µM | 4.74 µM | 0.0712 µM | 0.211 µM | 0.224 µM | 0.63 µM | 0.58 µM | 2.53 µM | 0.0514 µM | 0.273 µM | 0.166 µM | 0.382 µM | 0.13 µM | 1.32 µM
11 | CC1(C)C2CCC13C(=O)C1OC3(C2)C2C(=O)c3c(ccc4c3ccc3ccccc34)C(=O)C12 (stereo not given) | > 100 µM | > 100 µM | > 46.7 µM | > 94.8 µM | 70.5 µM | > 100 µM | 48 µM | > 100 µM | > 62.1 µM | > 100 µM | > 37.2 µM | > 53.2 µM | > 100 µM | > 100 µM | 20 µM | 80.1 µM | 54.3 µM | > 100 µM | > 62.2 µM | > 100 µM
12 | CC1OC(OC2C(O)C(O)C(O)C(O)C2O)C(N)CC1N=C(N)C(=O)O (stereo not given) |  | > 100 µM |  | > 100 µM |  | > 100 µM |  | > 100 µM |  | > 100 µM |  | > 100 µM |  | > 100 µM |  | > 100 µM |  | > 100 µM |  | > 100 µM
13 | C=C1C[C@@H]2O[C@H]3[C@H]4[C@@H](CC[C@@](C)(OC(=O)CCC)[C@H]42)[C@@H](C)C(=O)O[C@@]3(C)CC[C@H]1OO | > 100 µM | > 100 µM | 16.9 µM | 31.5 µM | 12.8 µM | 26 µM | 21.4 µM | 40 µM | 18.2 µM | 36.5 µM | 17.9 µM | 33.2 µM | 52.2 µM | > 100 µM | 4.8 µM | 19.1 µM | 17.8 µM | 32.8 µM | 17 µM | 33.1 µM
